In patent US8653263B2 (Janssen Pharmaceutica, priority 2009, dated 2014) one finds Ki data, which are given here for 24 molecules.

In the assay the target is human orexin-2 receptor (Homo sapiens (Human), UniProt O43614). Description: Human orexin 2 receptor radioligand binding ([3H]-EMPA competition). The following applies: HEK293 cells stably expressing human orexin-2 receptor; [3H]-EMPA 5 nM final; apparent Ki=IC50/(1+C/Kd), Kd=2 nM; read-out: OR 2 Ki.
Sequence of human orexin-2 receptor (O43614 whole entry): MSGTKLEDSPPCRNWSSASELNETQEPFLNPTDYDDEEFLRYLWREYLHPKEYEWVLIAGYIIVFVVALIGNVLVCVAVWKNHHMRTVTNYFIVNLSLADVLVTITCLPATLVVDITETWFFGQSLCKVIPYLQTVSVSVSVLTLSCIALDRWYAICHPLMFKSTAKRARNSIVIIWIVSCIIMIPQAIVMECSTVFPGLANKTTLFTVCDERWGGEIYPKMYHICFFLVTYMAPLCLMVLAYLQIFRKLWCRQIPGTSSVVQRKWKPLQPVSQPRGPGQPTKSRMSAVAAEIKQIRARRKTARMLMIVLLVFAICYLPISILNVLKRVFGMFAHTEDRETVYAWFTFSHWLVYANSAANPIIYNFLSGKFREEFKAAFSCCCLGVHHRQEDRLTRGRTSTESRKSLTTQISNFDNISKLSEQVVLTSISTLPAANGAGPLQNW
Consider `Cc1cccc(N2CC3CN(C(=O)c4ccccc4-c4cccs4)CC3C2)n1` (stereo not drawn) [Example 134, 2-(6-Methylpyridin-2-yl)-5-[(2-thiophen-2-ylphenyl)carbonyl]octahydropyrrolo[3,4-c]pyrrole], for which the Ki worked out at 102 nM. Take `COc1cc(N2CC3CN(C(=O)c4ccccc4-n4nccn4)CC3C2)nc(N(C)C)n1` (stereo not drawn) [Example 5, 4-Methoxy-N,N-dimethyl-6-[5-{[2-(2H-1,2,3-triazol-2-yl)phenyl]carbonyl}hexahydropyrrolo-[3,4-c]pyrrol-2(1H)-yl]pyrimidin-2-amine]: the Ki was 14 nM. In the case of `CCOc1ccc2ccccc2c1C(=O)N1CC2CN(c3nccc(OC)n3)CC2C1` (stereo not drawn) [Example 56, 2-[(2-Ethoxynaphthalen-1-yl)carbonyl]-5-(4-methoxypyrimidin-2-yl)octahydropyrrolo[3,4-c]pyrrole], the Ki was 80 nM. `Cc1ccnc(N2CC3CN(C(=O)c4ccccc4-n4nccn4)CC3C2)n1` (stereo not drawn) [Example 135, 2-(4-Methylpyrimidin-2-yl)-5-{[2-(2H-1,2,3-triazol-2-yl)phenyl]carbonyl}octahydro pyrrolo[3,4-c]pyrrole]: the Ki was 90 nM. With `Cc1cc(C)nc(N2CC3CN(C(=O)c4cnoc4-c4ccccc4)CC3C2)n1` (stereo not drawn) [Example 80, 2-(4,6-Dimethylpyrimidin-2-yl)-5-[(5-phenylisoxazol-4-yl)carbonyl]octahydro-pyrrolo[3,4-c]pyrrole], the Ki was 314 nM. For the molecule `O=C(c1ccccc1-c1nnc[nH]1)N1CC2CN(c3nccc(-c4ccccc4)n3)CC2C1` (stereo not drawn) [Example 141, [5-(4-Phenyl-pyrimidin-2-yl)-hexahydro-pyrrolo[3,4-c]pyrrol-2-yl]-[2-(4H-[1,2,4]triazol-3-yl)-phenyl]-methanone], the Ki came out at 1030 nM. As to `COc1cccc(C(=O)N2CC3CN(c4nc(C)cc(C)n4)CC3C2)c1OC` (stereo not drawn) [Example 273, (2,3-Dimethoxyphenyl)(5-(4,6-dimethylpyrimidin-2-yl)hexahydropyrrolo[3,4-c]pyrrol-2(1H)-yl)methanone], the Ki amounted to 5000 nM.

With `COc1ccc2nc(N3CC4CN(C(=O)c5ccccc5-c5ccccc5)CC4C3)sc2c1` (stereo not drawn) [Example 187, Biphenyl-2-yl-[5-(6-methoxy-benzothiazol-2-yl)-hexahydro-pyrrolo[3,4-c]pyrrol-2-yl]-methanone], the Ki came out at 2280 nM. In the case of `COc1ccnc(N2CC3CN(C(=O)c4ccccc4-c4cccs4)CC3C2)n1` (stereo not drawn) [Example 45, 2-(4-Methoxypyrimidin-2-yl)-5-[(2-thiophen-2-ylphenyl)carbonyl]octahydro-pyrrolo[3,4-c]pyrrole], the Ki was found to be 36 nM. Turning to `COc1cc(OC)nc(N2CC3CN(C(=O)c4cc(F)ccc4-c4ncccn4)CC3C2)n1` (stereo not drawn) [Example 71, 2-(4,6-Dimethoxypyrimidin-2-yl)-5-[(5-fluoro-2-pyrimidin-2-ylphenyl)carbonyl]octahydropyrrolo[3,4-c]pyrrole], the Ki is 1000 nM. Take `O=C(c1ccccc1-n1nccn1)N1CC2CN(c3cc(C(F)(F)F)nc(N4CCCC4)n3)CC2C1` (stereo not drawn) [Example 214, [5-(2-Pyrrolidin-1-yl-6-trifluoromethyl-pyrimidin-4-yl)-hexahydro-pyrrolo[3,4-c]pyrrol-2-yl]-(2-[1,2,3]triazol-2-yl-phenyl)-methanone]: the Ki amounted to 1230 nM. Regarding `CN(C)c1nc(N2CC3CN(C(=O)c4ccc(F)cc4-n4nccn4)CC3C2)cc(C(F)(F)F)n1` (stereo not drawn) [Example 111, [5-(2-Dimethylamino-6-trifluoromethyl-pyrimidin-4-yl)-hexahydro-pyrrolo[3,4-c]pyrrol-2-yl]-(4-fluoro-2-[1,2,3]triazol-2-yl-phenyl)-methanone], the Ki is 28 nM. On to `Cc1cc(C)nc(N2CC3CN(C(=O)c4cccnc4-c4ccn[nH]4)CC3C2)n1` (stereo not drawn) [Example 237, (2-(1H-Pyrazol-5-yl)pyridin-3-yl)(5-(4,6-dimethylpyrimidin-2-yl)hexahydropyrrolo[3,4-c]pyrrol-2(1H)-yl)methanone], for which the Ki worked out at 69 nM.

Consider `COc1ccccc1S(=O)(=O)N1CC2CN(c3cnc4ccccc4n3)CC2C1` (stereo not drawn) [Example 362, 2-(5-((2-Methoxyphenyl)sulfonyl)hexahydropyrrolo[3,4-c]pyrrol-2(1H)-yl)quinoxaline], for which the Ki was 1800 nM. In the case of `Cc1cnc(C)c(N2CC3CN(C(=O)c4ccc(F)cc4-n4nccn4)CC3C2)n1` (stereo not drawn) [Example 104, 2-(3,6-Dimethylpyrazin-2-yl)-5-{[4-fluoro-2-(2H-1,2,3-triazol-2-yl)phenyl]carbonyl}octahydropyrrolo[3,4-c]pyrrole], the Ki was determined as 42 nM. Consider `O=C(c1ccccc1-c1cccs1)N1CC2CN(c3cnc4ccccc4n3)CC2C1` (stereo not drawn) [Example 19, 2-{5-[(2-Thiophen-2-ylphenyl)carbonyl]hexahydropyrrolo[3,4-c]pyrrol-2(1H)-yl}quinoxaline], for which the Ki turned out to be 24 nM. For `Cc1ccc(-c2ncccn2)c(C(=O)N2CC3CN(c4cc(C(F)(F)F)nc(N(C)C)n4)CC3C2)c1` (stereo not drawn) [Example 108, N,N-Dimethyl-4-{5-[(5-methyl-2-pyrimidin-2-ylphenyl)carbonyl]hexahydropyrrolo[3,4-c]pyrrol-2(1H)-yl}-6-(trifluoromethyl)pyrimidin-2-amine], the Ki is 57 nM. `O=C(c1cccc(F)c1-c1ncccn1)N1CC2CN(c3cnc4cc(F)c(F)cc4n3)CC2C1` (stereo not drawn) [Example 387, (5-(6,7-Difluoroquinoxalin-2-yl)hexahydropyrrolo[3,4-c]pyrrol-2(1H)-yl)(3-fluoro-2-(pyrimidin-2-yl)phenyl)methanone]: the Ki was determined as 16 nM. Turning to `Cc1ccc2nc(N3CC4CN(C(=O)c5ccccc5-c5ccccc5)CC4C3)sc2c1` (stereo not drawn) [Example 188, Biphenyl-2-yl-[5-(6-methyl-benzothiazol-2-yl)-hexahydro-pyrrolo[3,4-c]pyrrol-2-yl]-methanone], the Ki stood at 2610 nM. For `Cc1cc(C)nc(N2CC3CN(C(=O)c4ccc(F)cc4-c4ncccn4)CC3C2)n1` (stereo not drawn) [Example 231, (5-(4,6-Dimethylpyrimidin-2-yl)hexahydropyrrolo[3,4-c]pyrrol-2(1H)-yl)(4-fluoro-2-(pyrimidin-2-yl)phenyl)methanone], the Ki is 68 nM. With `Cc1cc(C)nc(N2CC3CN(C(=O)c4ccccc4-n4ccnn4)CC3C2)n1` (stereo not drawn) [Example 205, [5-(4,6-Dimethyl-pyrimidin-2-yl)-hexahydro-pyrrolo[3,4-c]pyrrol-2-yl]-(2-[1,2,3]triazol-1-yl-phenyl)-methanone], the Ki stood at 3190 nM.

Take `Cc1cc(C)nc(N2CC3CN(C(=O)c4ccc(C)nc4-n4ccnn4)CC3C2)n1` (stereo not drawn) [Example 336, [5-(4,6-Dimethyl-pyrimidin-2-yl)-hexahydro-pyrrolo[3,4-c]pyrrol-2-yl]-(6-methyl-2-[1,2,3]triazol-1-yl-pyridin-3-yl)-methanone]: the Ki was 288 nM. Then `COc1ccc(C(=O)N2CC3CN(c4cnc5ccccc5n4)CC3C2)c(C)c1` (stereo not drawn) [Example 197, (4-Methoxy-2-methyl-phenyl)-(5-quinoxalin-2-yl-hexahydro-pyrrolo[3,4-c]pyrrol-2-yl)-methanone], with 1160 nM; and `Cc1cc(C)nc(N2CC3CN(C(=O)c4ccccc4-c4nc(C)no4)CC3C2)n1` (stereo not drawn) [Example 306, 2-(4,6-Dimethylpyrimidin-2-yl)-5-{[2-(3-methyl-1,2,4-oxadiazol-5-yl)phenyl]carbonyl}octahydropyrrolo[3,4-c]pyrrole], with 39 nM.
